Measurements: US12398139B2, “Modulators of AMPA receptor signaling” (Centre for Addiction and Mental Health, priority 2019, dated 2025)
pIC50: −log10 of the molar value. Where a name gives a salt, the structure may show the parent alone.

Tests used:
GluR2/GAPDH complex = target: T1, GluR2/GAPDH complex (Homo sapiens, UniProt P42262); experiment: Surface plasmon resonance target engagement assay (competitive GluR2-Venus affinity with GAPDH); settings: SPR, captured GluR2-VENUS, 100 nM GAPDH peptide, compound top concentration 10 μM; read-out: Potency, GluR2 Binding Affinity (competitive inhibition of GluR2-GAPDH interaction)
T1 construct: host or cells: HEK293 cells stably transfected with GluR2-VENUS (lysate)
T1 sequence (P42262 25-883, species assumed, one chain of several): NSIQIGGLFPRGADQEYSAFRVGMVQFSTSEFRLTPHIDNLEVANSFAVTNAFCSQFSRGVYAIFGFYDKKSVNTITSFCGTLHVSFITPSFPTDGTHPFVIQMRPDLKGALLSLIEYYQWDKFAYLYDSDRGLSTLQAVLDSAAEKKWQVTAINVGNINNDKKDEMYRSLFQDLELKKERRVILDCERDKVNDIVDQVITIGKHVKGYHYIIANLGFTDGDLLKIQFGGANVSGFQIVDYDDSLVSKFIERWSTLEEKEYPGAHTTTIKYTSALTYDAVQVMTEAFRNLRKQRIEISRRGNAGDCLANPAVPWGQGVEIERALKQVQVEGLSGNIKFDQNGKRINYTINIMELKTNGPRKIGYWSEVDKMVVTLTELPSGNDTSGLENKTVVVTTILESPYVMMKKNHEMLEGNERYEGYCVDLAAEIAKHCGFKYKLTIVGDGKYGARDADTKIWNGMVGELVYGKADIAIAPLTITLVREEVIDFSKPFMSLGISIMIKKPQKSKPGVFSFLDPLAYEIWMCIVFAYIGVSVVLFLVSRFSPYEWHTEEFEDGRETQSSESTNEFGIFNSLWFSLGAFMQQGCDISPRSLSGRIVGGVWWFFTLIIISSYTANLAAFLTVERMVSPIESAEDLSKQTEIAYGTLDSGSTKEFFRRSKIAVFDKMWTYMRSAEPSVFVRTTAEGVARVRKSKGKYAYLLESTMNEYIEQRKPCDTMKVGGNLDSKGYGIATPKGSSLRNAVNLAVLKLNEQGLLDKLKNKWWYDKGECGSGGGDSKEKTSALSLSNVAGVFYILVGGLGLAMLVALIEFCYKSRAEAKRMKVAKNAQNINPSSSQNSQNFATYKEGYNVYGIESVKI
Procedure: This is one of the most commonly used techniques to study modulation of protein-protein interactions by small molecule ligands, providing real-time measurement of binding affinities and association/dissociation kinetics of complexes (compound/protein) in a label-free environment. The ability of our lead compound to disrupt the interaction of GluR2/GAPDH complex was measured by the binding affinity. Compounds were analyzed for competitive GluR2-Venus protein affinity (with GAPDH recombinant protein) using a Reichert 2SPR system. The surface was first charged with nickel (500 μM NiCl2 in HBS-P buffer for 300 s at a flow rate of 5 μL/min). The dextran surface was then activated with a 1:1 mixture of N-ethyl-N-dimethylaminopropylcarbodiimide (EDC) and N-hydroxysuccinimide (NHS) on line for final concentrations of EDC and NHS of 37.5 mg/mL and 5.8 mg/mL, respectively, for 420 s at a flow rate of 25 μL/min. Anti-VENUS antibody was first immobilized by capture onto a 500 KDa CM Dextran sensor chip (Reichert), proceeded by activation of the carboxymethylated dextran surface for mild amine coupling, followed by a final blocking injection of 1 M ethanolamine, pH 8.5. GluR2-VENUS (lysate of HEK293 cells stably transfected with GluR2-VENUS) was then captured for 900 s at a flow rate of 25 μL/min followed by a final blocking injection of 2% BSA, for 300 s at a flow rate of 5 μL/min.
The surface plasmon resonance affinity assay was carried out in a PBS buffer consisting of 0.05% Tween 20. For affinity measurements, compound solutions were prepared using ten three-fold serial dilutions in running buffer from a 10 μM top concentration (prepared from DMSO stocks) along with a zero (running buffer) control, mixed with 100 nM GAPDH peptide (Sigma Aldrich). A flow rate of 30 μl/min was used with a 420 s contact time (using high performance injection parameters) followed by a 120 s dissociation phase. Results were analyzed by subtracting the signals of the reference surface from the signals for the protein-bound surfaces and performing a solvent correction. Competitive binding responses were normalized throughout the screen to the percentage of inhibition of the respective small molecule compound. Three independent experiments were performed.
The binding affinity was measured using the surface plasmon resonance assay described above.

[1] = tested on: HEK-293 cells expressing GAPDH and GluR2; experiment: AMPA mediated cell-death assay (CellTox Green Cytotoxicity Assay); assay type: cell-based; settings: Homo sapiens, HEK293, AMPA 500 μM, CTZ 100 μM, CellTox Green fluorescence, read-out: Potency, inhibition of AMPA-mediated neurotoxicity (IC50, concentration at which 50% of cell death was prevented)
Procedure: The ability of compounds to inhibit AMPA-mediated neurotoxicity was determined using the CellTox™ Green Cytotoxicity Assay (G8743) kit from Promega. In this assay, GAPDH and GluR2 are expressed in HEK-293 cells. AMPA (500 μM) was added to induce an AMPAR-mediated cell death signalling cascade. This is initiated by the GAPDH-GluR2 complex formation followed by the nuclear translocation of the complex, where it activates the p53-mediated cell death pathway. The presence of a compound which can block dimerization of GAPDH and GluR2 will prevent the nuclear translocation and the cell death and, thus this assay is an effective measure of the ability of a compound to prevent AMPA-mediated neurotoxicity and thus show therapeutic benefit in the treatment of MS.
The assay was performed as per the manufacture's instruction. Briefly, 293 cells stably expressing GluR1 and GluR2VENUS were transfected with pcDNA-RluC-GAPDH. AMPA (500 μM) were added to induce the cell death. CTZ (100 μM) was added to prevent AMPAR desensitization. Candidate molecules were added before the AMPA treatment to test its protective effect. Untreated cells and AMPA treated group were used as negative and positive control respectively. CellTox™ Green Reagent (˜5×) was then added to achieve a final concentration of 1× and cells were incubated at room temperature for 15 minutes (shielded from ambient light). The fluorescence intensity at 485-500 nmEx/520-530 nmEm was then measured and calculated as the percentage value of the positive control. The concentration at which 50% of cell death was prevented (IC50) was determined for each compound.
The potency was measured using the cell death assay described above.

Row | Compound | pIC50 (GluR2/GAPDH complex) | pIC50 [1]
1 | Cc1ccc(Cn2cc3c(n2)CN(c2cccc(C(=O)N(C)C)c2)C3)cc1 [Compound 235, N,N-Dimethyl-3-(2-(4-methylbenzyl)-2,6-dihydropyrrolo[3,4-c]pyrazol-5(4H)-yl)benzamide] | 5.97 | 6.18
2 | N#Cc1cccc(N2Cc3cn(Cc4ccc(F)cc4)nc3C2)c1 [Compound 240, 3-(2-(4-Fluorobenzyl)-2,6-dihydropyrrolo[3,4-c]pyrazol-5(4H)-yl)benzonitrile] | 7.59 | 7.46
3 | O=C(NC1CCCCC1)c1ccnc(N2Cc3cn(Cc4ccc(F)cc4)nc3C2)n1 [Compound 209, N-Cyclohexyl-2-(2-(4-fluorobenzyl)-2,6-dihydropyrrolo[3,4-c]pyrazol-5(4H)-yl)pyrimidine-4-carboxamide] | 7.00 | 7.18
4 | CN(C)C(=O)c1ccc(N2Cc3cn(Cc4ccc(F)cc4)nc3C2)cc1 [Compound 246, 4-(2-(4-Fluorobenzyl)-2,6-dihydropyrrolo[3,4-c]pyrazol-5(4H)-yl)-N,N-dimethylbenzamide] | 6.36 | 8.07
5 | CN(C)C(=O)c1cccc(N2Cc3cn(CC4CCCCC4)nc3C2)c1 [Compound 239, 3-(2-(Cyclohexylmethyl)-2,6-dihydropyrrolo[3,4-c]pyrazol-5(4H)-yl)-N,N-dimethylbenzamide] | 7.39 | 7.59
6 | O=C(c1ccnc(N2Cc3cn(Cc4ccc(F)cc4)nc3C2)n1)N1CCCCC1 [Compound 244, (2-(2-(4-Fluorobenzyl)-2,6-dihydropyrrolo[3,4-c]pyrazol-5(4H)-yl)pyrimidin-4-yl)(piperidin-1-yl)methanone] | 8.62 | 8.62
7 | N#Cc1cncc(N2Cc3cn(Cc4ccc(F)cc4)nc3C2)n1 [Compound 245, 6-(2-(4-Fluorobenzyl)-2,6-dihydropyrrolo[3,4-c]pyrazol-5(4H)-yl)pyrazine-2-carbonitrile] | 6.69 | 6.11
8 | O=C(NC1CCCC1)c1cccc(N2Cc3cn(Cc4ccc(F)cc4)nc3C2)c1 [Compound 215, N-Cyclopentyl-3-(2-(4-fluorobenzyl)-2,6-dihydropyrrolo[3,4-c]pyrazol-5(4H)-yl)benzamide] | 7.32 | 8.46
9 | O=C(c1cccc(N2Cc3cn(Cc4ccc(F)cc4)nc3C2)c1)N1CCCC1 [Compound 243, (3-(2-(4-Fluorobenzyl)-2,6-dihydropyrrolo[3,4-c]pyrazol-5(4H)-yl)phenyl)(pyrrolidin-1-yl)methanone] | 6.89 | 5.94
10 | O=C(NCC(F)(F)F)c1cccc(N2Cc3cn(Cc4ccc(F)cc4)nc3C2)c1 [Compound 219, 3-(2-(4-Fluorobenzyl)-2,6-dihydropyrrolo[3,4-c]pyrazol-5(4H)-yl)-N-(2,2,2-trifluoroethyl)benzamide] | 7.85 | 7.55
11 | CN(C)C(=O)c1cccc(N2Cc3cn(Cc4cccc(F)c4)nc3C2)c1 [Compound 237, 3-(2-(3-Fluorobenzyl)-2,6-dihydropyrrolo[3,4-c]pyrazol-5(4H)-yl)-N,N-dimethylbenzamide] | 7.52 | 7.33
12 | CN(C)C(=O)c1cccc(N2Cc3cn(CC4CC4)nc3C2)c1 [Compound 247, 3-(2-(Cyclopropylmethyl)-2,6-dihydropyrrolo[3,4-c]pyrazol-5(4H)-yl)-N,N-dimethylbenzamide] | 6.83 | 7.44
13 | CN1CCN(C(=O)c2ccnc(N3Cc4cn(Cc5ccc(F)cc5)nc4C3)n2)CC1 [Compound 212, (2-(2-(4-Fluorobenzyl)-2,6-dihydropyrrolo[3,4-c]pyrazol-5(4H)-yl)pyrimidin-4-yl)(4-methylpiperazin-1-yl)methanone] | 7.51 | 7.70
14 | O=C(NC1CCCC1)c1ccnc(N2Cc3cn(Cc4ccc(F)cc4)nc3C2)n1 [Compound 213] | 7.70 | 7.62
15 | CCN(CC)C(=O)c1cncc(N2Cc3cn(Cc4ccc(F)cc4)nc3C2)n1 [Compound 231, N,N-Diethyl-6-(2-(4-fluorobenzyl)-2,6-dihydropyrrolo[3,4-c]pyrazol-5(4H)-yl)pyrazine-2-carboxamide] | 7.07 | 6.60
16 | CN(C)C(=O)c1cncc(N2Cc3cn(CC4CCCCC4)nc3C2)n1 [Compound 238, 6-(2-(Cyclohexylmethyl)-2,6-dihydropyrrolo[3,4-c]pyrazol-5(4H)-yl)-N,N-dimethylpyrazine-2-carboxamide] | 6.99 | 6.78
17 | N#Cc1ccnc(N2Cc3cn(Cc4ccc(F)cc4)nc3C2)n1 [Compound 241, 2-(2-(4-Fluorobenzyl)-2,6-dihydropyrrolo[3,4-c]pyrazol-5(4H)-yl)pyrimidine-4-carbonitrile] | 7.70 | 7.14
18 | CN(C)C(=O)c1cncc(N2Cc3cn(Cc4cccc(F)c4)nc3C2)n1 [Compound 236, 6-(2-(3-Fluorobenzyl)-2,6-dihydropyrrolo[3,4-c]pyrazol-5(4H)-yl)-N,N-dimethylpyrazine-2-carboxamide] | 6.56 | 5.30
19 | Cc1ccc(Cn2cc3c(n2)CN(c2cncc(C(=O)N(C)C)n2)C3)cc1 [Compound 234, N,N-Dimethyl-6-(2-(4-methylbenzyl)-2,6-dihydropyrrolo[3,4-c]pyrazol-5(4H)-yl)pyrazine-2-carboxamide] | 6.86 | 6.94
20 | O=C(NC1CCCCC1)c1cncc(N2Cc3cn(Cc4ccc(F)cc4)nc3C2)n1 [Compound 214, N-Cyclohexyl-6-(2-(4-fluorobenzyl)-2,6-dihydropyrrolo[3,4-c]pyrazol-5(4H)-yl)pyrazine-2-carboxamide] | 7.62 | 7.34
21 | COc1ccc(Cn2cc3c(n2)CN(c2cncc(C(=O)N(C)C)n2)C3)cc1 [Compound 232, 6-(2-(4-Methoxybenzyl)-2,6-dihydropyrrolo[3,4-c]pyrazol-5(4H)-yl)-N,N-dimethylpyrazine-2-carboxamide] | 7.06 | 7.27
22 | O=C(c1ccnc(N2Cc3cn(Cc4ccc(F)cc4)nc3C2)n1)N1CCOCC1 [Compound 211, (2-(2-(4-Fluorobenzyl)-2,6-dihydropyrrolo[3,4-c]pyrazol-5(4H)-yl)pyrimidin-4-yl)(morpholino)methanone] | 7.47 | 7.36
23 | O=C(c1cccc(N2Cc3cn(Cc4ccc(F)cc4)nc3C2)c1)N1CCNCC1 [Compound 220, (3-(2-(4-Fluorobenzyl)-2,6-dihydropyrrolo[3,4-c]pyrazol-5(4H)-yl)phenyl)(piperazin-1-yl)methanone hydrochloride] | 7.07 | 7.82
24 | CN(C)C(=O)c1cccc(N2Cc3cn(Cc4ccc(F)cc4)nc3C2)c1 [Compound 217, 3-(2-(4-Fluorobenzyl)-2,6-dihydropyrrolo[3,4-c]pyrazol-5(4H)-yl)-N,N-dimethylbenzamide] | 7.17 | 8.17
25 | COc1ccc(Cn2cc3c(n2)CN(c2cccc(C(=O)N(C)C)c2)C3)cc1 [Compound 233, 3-(2-(4-Methoxybenzyl)-2,6-dihydropyrrolo[3,4-c]pyrazol-5(4H)-yl)-N,N-dimethylbenzamide] | 7.48 | 7.21
